Results on 99 compounds are retold here after ChEMBL document CHEMBL1795329, “QSPR modeling of octanol/water partition coefficient for vitamins by optimal descriptors calculated with SMILES” (Eur J Med Chem, 2008).

A short description of the data set: physchem. The settings on record: octanol/water.
The term logP denotes a log measure of how a compound divides between an organic and an aqueous phase. Regarding `C=CCC`, the lipophilicity (logP) is 2.27.

On to `C1C2CC3CC1CC(C2)C3`, for which the logP was 3.98.

The compound `Clc1cccc(Cl)c1-c1ccccc1` came in with a log partition coefficient (logP) of 5.46.

In turn, `CCCCCCCCCCC` showed a log partition coefficient (logP) of 6.51.

As for `c1ccc2c(c1)ccc1cc3c(ccc4ccccc43)cc12`, the logP stood at 6.84.

With `Clc1cc(Cl)c(-c2ccccc2)cc1Cl`, the logP amounted to 6.17.

In the case of `Clc1cc(-c2ccccc2)c(Cl)c(Cl)c1Cl`, the lipophilicity (logP) turned out to be 6.88.

In turn, `CSC` registered a log partition coefficient (logP) of 0.842.

Regarding `CCCCCCCl`, the logP is 3.58.

Take `CCCCl`: the logP was determined as 1.99.

The compound `Cl/C=C/Cl` returned a logP of 1.51.

The compound `c1ccc2ccccc2c1` showed a lipophilicity (logP) of 3.32.

For the compound `CC(C)CCC[C@@H](C)[C@H]1CC[C@H]2C3=CC=C4C[C@@H](O)CC[C@]4(C)[C@H]3CC[C@]12C`, the logP turned out to be 8.65.

As to `Cc1cc(C)c(C)c(C)c1`, the logP turned out to be 4.74.

Regarding `Cc1cc(C)c(C)cc1C`, the logP was 4.74.

In the case of `Brc1ccccc1Br`, the logP worked out at 3.59.

For `CCCCCCCCl`, the logP came out at 4.11.

For `Clc1ccc(-c2ccccc2Cl)c(Cl)c1`, the lipophilicity (logP) came out at 6.17.

Consider `CC(C)CC(C)(C)C`, for which the logP was 4.54.

For the compound `Cc1cc2ccccc2cc1C`, the log partition coefficient (logP) is 4.61.

With `Clc1cc(Cl)c(-c2ccccc2)c(Cl)c1`, the logP is 6.17.

With `Clc1ccc(Cl)c(-c2ccccc2)c1`, the logP stood at 5.46.

In turn, `Cc1ccccc1Cl` registered a logP of 3.5.

Compound `Cc1ccc2cc3ccccc3cc2c1` had a log partition coefficient (logP) of 5.14.

The compound `CCCCC(C)C` showed a logP of 4.27.

In turn, `Cc1ccc(Cl)cc1` came in with a log partition coefficient (logP) of 3.5.

With `Cc1cc2ccccc2c2ccc3ccccc3c12`, the logP is 6.31.

As to `c1cc2c3c(cccc3c1)CC2`, the logP stood at 4.07.

As to `c1ccc2cc3cc4ccccc4cc3cc2c1`, the logP was found to be 5.66.

In turn, `Cc1ccc(C)c(C)c1C` returned a lipophilicity (logP) of 4.74.

`Cc1cccc(C)c1C` yielded a logP of 4.09.

As for `Cc1ccc(C)c(C)c1`, the logP came to 4.09.

For `Cc1cc(C)cc(C)c1`, the lipophilicity (logP) came to 4.09.

For the compound `Cc1ccc(C)c2c(C)cccc12`, the logP worked out at 5.26.

Consider `Cc1cccc2c1Cc1ccccc1-2`, for which the logP was found to be 4.87.

On to `Cc1c2ccccc2cc2ccc3ccccc3c12`, for which the logP came to 6.31.

`Clc1cc(Cl)c(-c2ccccc2Cl)cc1Cl` returned a logP of 6.88.

Compound `Clc1ccc2c(ccc3ccccc32)c1` yielded a logP of 5.2.

In the case of `CCC(C)C`, the log partition coefficient (logP) amounted to 3.21.

On to `Cc1ccc2c(ccc3ccccc32)c1`, for which the logP stood at 5.14.

For the compound `Cc1cccc(Cl)c1`, the logP came out at 3.5.

`Cc1c(C)c2c3ccccc3ccc2c2ccccc12` displayed a logP of 6.96.

The compound `Cc1cc2c3ccccc3ccc2c2ccccc12` came in with a logP of 6.31.

`Cc1c2ccccc2cc2ccccc12` returned a logP of 5.14.

Take `c1ccc2c(c1)c1ccccc1c1ccccc21`: the lipophilicity (logP) was 5.66.

For `c1ccc2cc3c(ccc4ccccc43)cc2c1`, the logP was 5.66.

Compound `c1cc2ccc3ccc4ccc5cccc6c(c1)c2c3c4c56` returned a log partition coefficient (logP) of 6.58.

Regarding `Clc1ccccc1-c1ccccc1`, the logP amounted to 4.74.

With `Cc1ccc2cc(C)ccc2c1`, the logP came out at 4.61.

Compound `Clc1cccc2ccccc12` showed a lipophilicity (logP) of 4.03.

Take `Brc1ccc(Br)cc1`: the logP turned out to be 3.87.

`Clc1ccc(-c2ccccc2Cl)cc1` came in with a log partition coefficient (logP) of 5.46.

Turning to `Cc1ccc2ccccc2c1`, the log partition coefficient (logP) stood at 3.96.

Take `c1ccc2c(c1)ccc1cc3ccc4ccccc4c3cc12`: the logP was 6.84.

Take `CCCc1ccccc1`: the logP was 3.85.

`C=CCCC` yielded a logP of 2.79.

On to `Clc1ccc(Cl)c(Cl)c1`, for which the logP was 4.28.

The compound `CCCC(C)C` had a lipophilicity (logP) of 3.74.

As for `c1ccc2c(c1)cc1ccc3cccc4ccc2c1c34`, the logP was found to be 6.12.

`CCc1cccc2ccccc12` registered a logP of 4.49.

Compound `Cc1cccc2ccc3cc4ccccc4cc3c12` came in with a lipophilicity (logP) of 6.31.

For the compound `CCCCCCl`, the logP worked out at 3.05.

As for `Cc1ccc(C)c2ccccc12`, the log partition coefficient (logP) turned out to be 4.61.

Compound `Clc1ccc2ccccc2c1` had a logP of 4.03.

The compound `Cc1cccc2ccccc12` yielded a logP of 3.96.

In turn, `Cc1c2ccccc2cc2c1ccc1ccccc12` registered a log partition coefficient (logP) of 6.31.

`Cc1ccc2c3ccccc3c3cccc4ccc1c2c43` had a logP of 6.77.

For `CCc1c2ccccc2cc2c1ccc1ccccc12`, the logP is 6.84.

`c1cc2cccc3c4cccc5cccc(c(c1)c23)c54` displayed a logP of 6.12.

`Cc1cccc2c(C)cccc12`: the lipophilicity (logP) was found to be 4.61.

In the case of `Clc1cc(Cl)c(Cl)c(Cl)c1`, the logP came out at 4.99.

`c1ccc(CCc2ccccc2)cc1` had a logP of 4.89.

In the case of `Clc1cccc(Cl)c1`, the logP stood at 3.57.

For `Clc1cc(Cl)c(Cl)cc1Cl`, the logP was 4.74.

Consider `Clc1cccc(Cl)c1Cl`, for which the lipophilicity (logP) came out at 4.28.

The compound `c1ccc2c(c1)ccc1ccccc12` displayed a logP of 4.49.

On to `Cc1cc(C)c(C)c(C)c1C`, for which the lipophilicity (logP) was 5.39.

On to `Cc1c2ccccc2c(C)c2ccccc12`, for which the lipophilicity (logP) was found to be 5.79.

Take `c1ccc2c(c1)ccc1c3ccccc3ccc21`: the logP was determined as 5.66.

Turning to `ClC(Cl)C(Cl)Cl` [1,1,2,2-TETRACHLOROETHANE], the logP is 2.64.

In the case of `BrCCBr` [1,2-DIBROMOETHANE], the logP stood at 1.74.

For `Clc1ccccc1Cl` [1,2-DICHLOROBENZENE], the lipophilicity (logP) worked out at 3.57.

Take `ClCCCl` [1,2-DICHLOROETHANE]: the logP is 1.46.

The compound `Clc1cc(Cl)cc(Cl)c1` [1,3,5-TRICHLOROBENZENE] had a log partition coefficient (logP) of 4.28.

For `Clc1ccc(Cl)cc1` [1,4-DICHLOROBENZENE], the lipophilicity (logP) was determined as 3.57.

For `CC(=O)Oc1cc(C)c(OC(C)=O)c2ccccc12` [ACETOMENAPHTHONE], the logP was 3.59.

For `Nc1ncnc2c1ncn2[C@@H]1O[C@H](COP(=O)(O)O)[C@@H](O)[C@H]1O` [ADENOSINE PHOSPHATE], the log partition coefficient (logP) was -1.68.

The compound `c1ccc2c(c1)Cc1c-2ccc2ccccc12` [BENZO(A)FLUORENE] displayed a log partition coefficient (logP) of 5.4.

In the case of `c1ccc2c3c(ccc2c1)-c1cccc2cccc-3c12` [BENZO(J)FLUORANTHENE], the logP is 6.12.

The compound `c1ccc2cc3c(cc2c1)-c1cccc2cccc-3c12` [BENZO(K)FLUORANTHENE] gave a logP of 6.12.

`c1ccc2c(c1)-c1cccc3c1c-2cc1ccccc13` [BENZO[B]FLUORANTHENE]: the lipophilicity (logP) was found to be 6.12.

For `c1ccc2c(c1)Cc1cc3ccccc3cc1-2` [BENZO[B]FLUORENE], the lipophilicity (logP) is 5.4.

Turning to `c1ccc2c(c1)c1cccc3ccc4cccc2c4c31` [BENZO[E]PYRENE], the logP worked out at 6.12.

On to `O=C(O)CCCC[C@@H]1SC[C@@H]2NC(=O)N[C@@H]21` [BIOTIN], for which the lipophilicity (logP) turned out to be 0.39.

In the case of `c1ccc(-c2ccccc2)cc1` [BIPHENYL], the logP turned out to be 4.03.

`CCCC` [BUTANE] displayed a logP of 2.81.

`CCCCCl` [BUTYL CHLORIDE] showed a log partition coefficient (logP) of 2.52.

`CCCCc1ccccc1` [BUTYLBENZYL] displayed a logP of 4.74.

In the case of `ClC(Cl)(Cl)Cl` [CARBON TETRACHLORIDE], the logP is 2.88.
